Laboratory results taken from patent US20260007599A1, “TICAGRELOR IV FORMULATIONS FOR USE IN THE TREATMENT OF GRAM-POSITIVE BACTEREMIA” (Hyloris Developments SA, priority 2023, published 2026).

Columns and labels:
[1] = Solubilization of ticagrelor in unbuffered cyclodextrin stock solutions in milli Q water, appearance on shaking platform; assay type: physicochemical;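 on Appearance in cyclodextrin: plus means clear and fully dissolved while plus-minus means clear solution with precipitation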
Description: In a first example two different types of cyclodextrin were used and compared for the solubilization of ticagrelor. An unbuffered stock solution of HPBCD or SBECD was made in water at the target concentrations of 20 w/w %, 25 w/w %, 30 w/w %, 35 w/w % and 40 w/w %. Ticagrelor was added slowly under vortex. Ticagrelor was used at concentrations of 5, 10 or 14 mg/ml in milli Q water. The ticagrelor-cyclodextrin solutions were left on a shaking platform. No sonification or heat was applied.

[2] = Clear aqueous solutions with ticagrelor-cyclodextrin inclusion complex (Table 17); assay type: physicochemical; conditions: using 20-40% w/w HPβCD
[3] = Maximum solubility of ticagrelor in HPβCD solution without heat; assay type: physicochemical; conditions: without the use of heat
Description: In a further example, the maximum solubility of ticagrelor in an HPβCD solution, without the use of heat, was investigated.

[4] = Dilution of a concentrated ticagrelor vial (8 ml, 65 mg ticagrelor, about 3 g HPβCD); assay type: physicochemical
[5] = test system: glycopeptide intermediate Staphylococcus aureus (GISA); conditions: ex-vivo; cited from earlier work
[6] = test system: vancomycin-resistant E. Faecalis (VRE); conditions: ex-vivo; cited from earlier work
[7] = 30-42% confidence interval; cited from earlier work

CCCSc1nc(N[C@@H]2C[C@H]2c2ccc(F)c(F)c2)c2nnn([C@@H]3C[C@H](OCCO)[C@@H](O)[C@H]3O)c2n1 [ticagrelor, (1S,2S,3R,5S)-3-{7-[(1R,2S)-2-(3,4-difluorophenyl)cyclopropylamino]5-(propylthio)-3H-(1,2,3)triazolo (4,5-D)pyrimidin-3-yl}-5-(2 hydroxyethoxy) cyclopentane-1,2-diol]
Appearance in cyclodextrin ([1]; HPβCD 35% w/w, ticagrelor 10 mg/ml, after overnight shaking): + (clear, appeared completely dissolved) | Appearance in cyclodextrin ([1]; HPβCD 35% w/w, ticagrelor 14 mg/ml, after 5 min of shaking): − (translucent solution with precipitation) | Appearance in cyclodextrin ([1]; HPβCD 35% w/w, ticagrelor 14 mg/ml, after 30 min of shaking): +/− | Appearance in cyclodextrin ([1]; HPβCD 35% w/w, ticagrelor 14 mg/ml, after 60 min of shaking): +/− | Appearance in cyclodextrin ([1]; HPβCD 35% w/w, ticagrelor 14 mg/ml, after 3 h of shaking): +/− | Appearance in cyclodextrin ([1]; HPβCD 35% w/w, ticagrelor 14 mg/ml, after overnight shaking): +/− | Appearance in cyclodextrin ([1]; HPβCD 40% w/w, ticagrelor 5 mg/ml, after 5 min of shaking): + (clear, appeared completely dissolved) | Appearance in cyclodextrin ([1]; HPβCD 40% w/w, ticagrelor 5 mg/ml, after 30 min of shaking): + (clear, appeared completely dissolved) | Appearance in cyclodextrin ([1]; HPβCD 40% w/w, ticagrelor 5 mg/ml, after 60 min of shaking): + (clear, appeared completely dissolved) | Appearance in cyclodextrin ([1]; HPβCD 40% w/w, ticagrelor 5 mg/ml, after 3 h of shaking): + (clear, appeared completely dissolved) | Appearance in cyclodextrin ([1]; HPβCD 40% w/w, ticagrelor 5 mg/ml, after overnight shaking): + (clear, appeared completely dissolved) | Appearance in cyclodextrin ([1]; HPβCD 40% w/w, ticagrelor 10 mg/ml, after 5 min of shaking): − (translucent solution with precipitation) | Appearance in cyclodextrin ([1]; HPβCD 40% w/w, ticagrelor 10 mg/ml, after 30 min of shaking): +/− | Appearance in cyclodextrin ([1]; HPβCD 40% w/w, ticagrelor 10 mg/ml, after 60 min of shaking): +/− | Appearance in cyclodextrin ([1]; HPβCD 40% w/w, ticagrelor 10 mg/ml, after 3 h of shaking): +/− | Appearance in cyclodextrin ([1]; HPβCD 40% w/w, ticagrelor 10 mg/ml, after overnight shaking): + (clear, appeared completely dissolved) | Appearance in cyclodextrin ([1]; HPβCD 40% w/w, ticagrelor 14 mg/ml, after 5 min of shaking): − (translucent solution with precipitation) | Appearance in cyclodextrin ([1]; HPβCD 40% w/w, ticagrelor 14 mg/ml, after 30 min of shaking): +/− | Appearance in cyclodextrin ([1]; HPβCD 40% w/w, ticagrelor 14 mg/ml, after 60 min of shaking): +/− | Appearance in cyclodextrin ([1]; HPβCD 40% w/w, ticagrelor 14 mg/ml, after 3 h of shaking): +/− | Appearance in cyclodextrin ([1]; SBECD 35% w/w, ticagrelor 5 mg/ml, after 5 min of shaking): − (translucent solution with precipitation) | Appearance in cyclodextrin ([1]; SBECD 35% w/w, ticagrelor 5 mg/ml, after 30 min of shaking): +/− | Appearance in cyclodextrin ([1]; SBECD 35% w/w, ticagrelor 5 mg/ml, after 60 min of shaking): +/− | Appearance in cyclodextrin ([1]; SBECD 35% w/w, ticagrelor 5 mg/ml, after 3 h of shaking): +/− | Appearance in cyclodextrin ([1]; SBECD 35% w/w, ticagrelor 5 mg/ml, after overnight shaking): − (translucent solution with precipitation) | Appearance in cyclodextrin ([1]; SBECD 35% w/w, ticagrelor 10 mg/ml, after 5 min of shaking): − (translucent solution with precipitation) | Appearance in cyclodextrin ([1]; SBECD 35% w/w, ticagrelor 10 mg/ml, after 30 min of shaking): − (translucent solution with precipitation) | Appearance in cyclodextrin ([1]; SBECD 35% w/w, ticagrelor 10 mg/ml, after 60 min of shaking): − (translucent solution with precipitation) | Appearance in cyclodextrin ([1]; SBECD 35% w/w, ticagrelor 10 mg/ml, after 3 h of shaking): − (translucent solution with precipitation) | Appearance in cyclodextrin ([1]; SBECD 35% w/w, ticagrelor 10 mg/ml, after overnight shaking): − (translucent solution with precipitation) | Appearance in cyclodextrin ([1]; SBECD 35% w/w, ticagrelor 14 mg/ml, after 5 min of shaking): − (translucent solution with precipitation) | Appearance in cyclodextrin ([1]; SBECD 35% w/w, ticagrelor 14 mg/ml, after 30 min of shaking): − (translucent solution with precipitation) | Appearance in cyclodextrin ([1]; SBECD 35% w/w, ticagrelor 14 mg/ml, after 60 min of shaking): − (translucent solution with precipitation) | Appearance in cyclodextrin ([1]; SBECD 35% w/w, ticagrelor 14 mg/ml, after 3 h of shaking): − (translucent solution with precipitation) | Appearance in cyclodextrin ([1]; SBECD 35% w/w, ticagrelor 14 mg/ml, after overnight shaking): − (translucent solution with precipitation) | Appearance in cyclodextrin ([1]; SBECD 40% w/w, ticagrelor 10 mg/ml, after 5 min of shaking): − (translucent solution with precipitation) | Appearance in cyclodextrin ([1]; SBECD 40% w/w, ticagrelor 10 mg/ml, after 30 min of shaking): − (translucent solution with precipitation) | Appearance in cyclodextrin ([1]; SBECD 40% w/w, ticagrelor 10 mg/ml, after 60 min of shaking): − (translucent solution with precipitation) | Appearance in cyclodextrin ([1]; SBECD 40% w/w, ticagrelor 10 mg/ml, after 3 h of shaking): − (translucent solution with precipitation) | Appearance in cyclodextrin ([1]; SBECD 40% w/w, ticagrelor 10 mg/ml, after overnight shaking): − (translucent solution with precipitation) | Appearance in cyclodextrin ([1]; SBECD 40% w/w, ticagrelor 14 mg/ml, after 5 min of shaking): − (translucent solution with precipitation) | Appearance in cyclodextrin ([1]; SBECD 40% w/w, ticagrelor 14 mg/ml, after 30 min of shaking): − (translucent solution with precipitation) | Appearance in cyclodextrin ([1]; SBECD 40% w/w, ticagrelor 14 mg/ml, after 60 min of shaking): − (translucent solution with precipitation) | Appearance in cyclodextrin ([1]; SBECD 40% w/w, ticagrelor 14 mg/ml, after 3 h of shaking): − (translucent solution with precipitation) | Appearance in cyclodextrin ([1]; SBECD 40% w/w, ticagrelor 14 mg/ml, after overnight shaking): − (translucent solution with precipitation) | Appearance on standing ([1]; ticagrelor 5 mg/ml in HPBCD 40%, 35% or 30% w/w in milliQ water, at least three days at room temperature and several days at 4° C.): remained clear | ticagrelor solution concentration achieved [2]: 5 −13 mg/ml | Ticagrelor (maximum solubility in HPβCD solution) ([3]; HPβCD 30% w/w): 8000 µg/mL | Ticagrelor (maximum solubility in HPβCD solution) ([3]; HPβCD 33% w/w): 9000 µg/mL | clear solution on dilution ([4]; 0,9 w/v % NaCl solution as diluent): not possible | appearance after dilution ([4]; diluted with 25 ml 5 w/v % dextrose, final volume 33 ml): clear solution | minimal bactericidal concentration [5]: 20 microgram/ml | minimal bactericidal concentration [6]: 20 microgram/ml | Oral bioavailability [7]: 36%
